# In paper PMC10426190 (Breast Cancer Research : BCR, 2023):
# Where two headings read alike, the source gives them in different places.
# What was measured:
# uterine tissue = assay: Assessment of uterotropic activity in juvenile rats; format: in vivo, rat; conditions: juvenile SD rats, oral QD x 3 days; tamoxifen 60 mg/kg, SCR-6852 10 mg/kg; vs vehicle
# Method: Twenty-four hours after the final dose, all animals were euthanized. Body weights and wet uterine weights were recorded for each animal. Fresh uterine tissue from each rat was fixed in 4% paraformaldehyde, dehydrated by HistoCore PEARL (Leica), and embedded by HistoCore Arcadia H + HistoCore Arcadia C (Leica). Sections were cut at 4 μm and stained with 0.1% toluidine blue O. The thickness of endometrial epithelium was measured using Leica Aperio CS2 with ImageScope × 64 program (Leica). The mean of five measurements per specimen was calculated.
# MCF7 with hormone-deprived pre-treatment were administrated ER ligands or not present with 1 nM E2 stimulation for 24 h incubation in a 12-well plate. Total mRNA was isolated from treated cells and sequenced on an Illumina HiSeq X Ten platform. FPKM of each gene was calculated using Cufflinks and Differential expression genes analysis by using the DESeq (2012) R package. Four separate clusters were obtained. […] T47D EFM-19 and HCC1500 cells were grown in RPMI media supplemented with 10% charcoal-stripped FBS for 14 days and then treated with ER antagonist (1 μM) or DMSO in the presence E2 (1nM) stimulation for 24 h before RNA isolation and gene expression analysis as described in methods. […] Endometrial height was assessed from the basement membrane to the luminal border (scale bar in green lines: 200 μm), Arrows indicate the uterine epithelium (e).
# breast cancer = test system: breast cancer; parameters: method as in PMID 28149048; conditions: cited from earlier work
# [1] = Brain distribution study in mice; conditions: oral 10 mg/kg once a day (fulvestrant 250 mg/kg sc once per week), 24 h post last dose
# Method: The blood and brain tissues were collected at 24 h post the last dose. […] All blood was collected in K2-EDTA tubes and plasma was obtained by centrifuging the blood at 3200 rpm for 10 min at 4 °C and the brain was rinsed with water and blotted to remove superficial meninges. Plasma and brain samples were stored at − 80 °C until LC–MS/MS analysis which was performed on an Acquity UPLC system (Waters, USA) coupled to an AB SCIEX Triple Quad 6500 + System.
# Brain conc./plasma conc. was presented as a B/P ratio
# [2] = parameters: method as in PMID 26149830; conditions: mice, 30 mg/kg, approximately 12 h ref 38; cited from earlier work
# [3] = test system: MCF-7 subcutaneous tumors; assay: MCF-7 subcutaneous xenograft, combination with Palbociclib; format: in vivo, mouse; conditions: MCF-7 sc, Palbociclib 40 mg/kg monotherapy
# Method: Female Balb/c nude mice were used for MCF-7 and T47D tumor subcutaneous xenograft studies. At least one day before tumor cell implantation, estrogen pellets (0.18 mg, 17β-Estradiol, 60-day release, Innovative Research of America, Sarasota, FL, USA) were implanted subcutaneously. Each mouse was subcutaneously injected with 1 × 10^7 MCF-7 (ECACC) or T47D cells in the right flank, and tumor growth was monitored. The long diameter (a) and the short diameter (b) of the tumor were measured using a caliper, and the tumor volume was calculated using the following formula: V = 0.5 × a × b^2. […] Tumor volumes were evaluated twice per week. Treatment tolerability was assessed by body weight measurements and frequent observation for clinical signs of treatment-related adverse effects.
# (§1) Statistical and graphical presentations were performed using IDBS XLfit and GraphPad Prism 9. For cell proliferation assays, the IC50 was calculated by fitting a dose–response curve using a nonlinear regression model with a log(inhibitor) vs response curve fit. […] P-values < 0.05 were considered statistically significant.
# Cell viability was measured using Cell TiterGlo assay. […] The result of one representative assay from three similar independent experiments is shown.
# MCF-7 WT cells = assay: Viability assay (CellTiter-Glo, 7 days), MCF-7 WT; format: cell-based, human
# Method: (§2) Trypsinized cells were dispensed into 384-well plates in culture media and after overnight incubation cells were treated with compounds for 7 days. Cell viability was assessed using CellTiter-Glo (Promega) according to the manufacturer’s protocol and relative luminescence units (RLU) were measured using an Envision Multilabel Reader (Perkin Elmer). […] IC50 and Imax were analyzed with IDBS XLfit.
# as §1
# ERα [4] = molecular target: T1, ERα (Homo sapiens, UniProt P03372); assay: ERα degradation assay, In-Cell Western, MCF-7 WT; format: cell-based; parameters: MCF-7 wild type and Y537S mutant cells were seeded at a density of 5000 cells per well; host or cells: MCF-7; conditions: 24 h
# T1 sequence (P03372 1-595): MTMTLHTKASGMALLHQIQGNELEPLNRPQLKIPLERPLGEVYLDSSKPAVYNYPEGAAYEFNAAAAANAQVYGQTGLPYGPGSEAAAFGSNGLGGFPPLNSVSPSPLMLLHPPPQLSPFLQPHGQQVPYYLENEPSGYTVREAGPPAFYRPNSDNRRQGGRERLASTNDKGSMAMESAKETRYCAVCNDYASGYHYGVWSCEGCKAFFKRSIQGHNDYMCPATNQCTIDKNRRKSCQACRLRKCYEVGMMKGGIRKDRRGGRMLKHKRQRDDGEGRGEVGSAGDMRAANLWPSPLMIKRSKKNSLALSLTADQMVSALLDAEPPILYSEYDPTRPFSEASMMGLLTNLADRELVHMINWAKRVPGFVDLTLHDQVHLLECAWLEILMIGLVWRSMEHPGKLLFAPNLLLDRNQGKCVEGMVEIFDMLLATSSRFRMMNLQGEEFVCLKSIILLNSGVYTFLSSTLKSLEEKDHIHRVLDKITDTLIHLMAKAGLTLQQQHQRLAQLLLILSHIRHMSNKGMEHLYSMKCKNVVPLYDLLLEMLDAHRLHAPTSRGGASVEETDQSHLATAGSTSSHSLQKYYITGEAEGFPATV
# Method: MCF-7 wild type and Y537S mutant cells were seeded at a density of 5000 cells per well into flat clear bottom tissue cultured-treated 384-well plates (Greiner) in culture media and after overnight incubation cells were treated with compounds for 24 h. Then plates were fixed with 4% formaldehyde, permeabilized with ice-cold methanol, and blocked with Odyssey Blocking Buffer (LI-COR). The fixed cells were incubated with rabbit anti- ERα antibody (CST#8644S) and mouse anti-GAPDH antibody (Abcam #ab8245), washed and stained with IRDye 800 Goat anti-Rabbit IgG (Licor#926-32211) and IRDye 680 Goat anti-Mouse IgG (Licor#926-68070). ERα levels were quantitated using Sapphire RGBNIR (Azure), the acumen eX3 imaging system. […] IC50 and Emax were analyzed with IDBS XLfit.
# (§3) MCF7 cells were seeded in a 384-well plate and linear-dilution compounds were administrated in duplicate for each treatment. After incubation for 24 h, Cells in the assay pate were treated as described in methods. ERα levels were quantified by immunofluorescence assay. […] Cells were dispended into 96-well plates and incubated for 24 h with compounds (100 nM) treatment. […] Cells were seeded in 384-well plates and treated with linear-dilution compounds for 7 days of incubation. Cell viability was assessed using CellTiter-Glo. Cell growth inhibition is presented as a percentage of CellTiterGlo activity relative to the vehicle control. […] Then cells in each well were collected and the targeting proteins in lysate supernatant were detected by WB
# Cells were seeded at a density of 5,000 cells per well into 384-well plates and treated with linear-titration compounds in duplicate for 24 hours. ERα levels were quantified by immunofluorescence assay as described in the method. The detection signals were captured by Odyssey.
# [5] = parameters: method as in PMID 30018387; conditions: cited from earlier work
# [6] = test system: ER + breast cancer cell lines; assay: Proliferation assay across ER-positive cell panel; format: cell-based, human; conditions: CAMA-1 and HCC1500, 7 days
# Method: as §2
# MCF7 cells were seeded in a 384-well plate and linear-dilution compounds were administrated in duplicate for each treatment. After incubation for 24 h, Cells in the assay pate were treated as described in methods. ERα levels were quantified by immunofluorescence assay. […] Data are given as mean ± SEM. b The maximal ERα degradation across an ER-positive cell panel was evaluated in an In-cell Western assay. Cells were dispended into 96-well plates and incubated for 24 h with compounds (100 nM) treatment. […] Cells were seeded in 384-well plates and treated with linear-dilution compounds for 7 days of incubation. Cell viability was assessed using CellTiter-Glo. Cell growth inhibition is presented as a percentage of CellTiterGlo activity relative to the vehicle control. […] WT (e) and ER. Y537S cells (f). […] Then cells in each well were collected and the targeting proteins in lysate supernatant were detected by WB
# ERα [7] = molecular target: T1, ERα; assay: Maximal ERα degradation across ER-positive cell panel, In-cell Western, 100 nM; format: cell-based; conditions: 24 h, EFM-19, CAMA-1, HCC1500, T47D, BT-474
# Method: as §3
# [8] = test system: ER+ breast cancer, WT or mutant ESR1; parameters: method as in EMERALD (NCT03778931), ASCO, 2022; conditions: ASCO, 2022, cited from earlier work
# intracranial tumor = conditions: cited from earlier work
smiles,measurement,setting,value
CC/C(=C(\c1ccccc1)c1ccc(OCCN(C)C)cc1)c1ccccc1 [Tamoxifen],endometrial epithelial thickness,uterine tissue,significantly increased
same,relative uterine wet weight,uterine tissue,significant increase
same,reduction of annual mortality rate,breast cancer,31%
same,reduction of breast cancer recurrence,breast cancer,50%
C[C@@H]1Cc2c(ccc3[nH]ncc23)[C@@H](c2ccc(NC3CN(CCCF)C3)cn2)N1CC(F)(F)F [AZD-9833],B/P ratio,[1],less than onefold
CCN1CCN(Cc2ccc(Nc3ncc(F)c(-c4cc(F)c5nc(C)n(C(C)C)c5c4)n3)nc2)CC1 [Abemaciclib],target engagement ratio (unbound brain concentration to in vitro enzyme IC50),[2],3.3–14.3
CC(=O)c1c(C)c2cnc(Nc3ccc(N4CCNCC4)cn3)nc2n(C2CCCC2)c1=O [Palbociclib],TGI,[3],66.34%
CC1Cc2cc(B(O)O)ccc2C(c2c(F)cc(NC3CN(CCCF)C3)cc2F)N1CC1(F)CC1 (centres unmarked) [SCR-6515],IC50,MCF-7 WT cells,0.29 nM
same,Viability assay Emax [% Ful.],MCF-7 WT cells,103.00 % Ful.
same,Viability assay Emax [% Veh.],MCF-7 WT cells,64.15 % Veh.
same,DC50,ERα [4],0.08 nM
same,ERα degradation assay Dmax [% Ful.],ERα [4],97.83 % Ful.
same,ERα degradation assay Dmax [% Veh.],ERα [4],66.81 % Veh.
Nc1cc(C(F)(F)F)c(-c2cc(N3CCOCC3)nc(N3CCOCC3)n2)cn1 [Buparlisib],B/P ratio,[5],> 1.5
C[C@@H]1Cc2c([nH]c3ccccc23)[C@@H](c2c(F)cc(/C=C/C(=O)O)cc2F)N1CC(C)(C)F [AZD9496],maximal anti-proliferation rate,[6],lower maximal anti-proliferation rate
same,maximal ERα degradation rate across ER + cell lines,ERα [7],less potency ERα degradation rate
C[C@@H]1Cc2c([nH]c3ccccc23)[C@@H](c2c(F)cc(NC3CN(CCCF)C3)cc2F)N1CC(F)(F)CO [GDC-9545],B/P ratio,[1],less than onefold
CCNCCc1ccc(CN(CC)c2cc(OC)ccc2[C@@H]2CCc3cc(O)ccc3C2)cc1 [Elacestrant],PFS rate at 12 months,[8]; ESR1 mutation population ref EMERALD (NCT03778931),26.76%
same,reduction of the risk of disease progression or death,[8]; all patients ref EMERALD (NCT03778931),30%
same,PFS rate at 12 months,[8]; overall population ref EMERALD (NCT03778931),22.32%
same,reduction of the risk of disease progression or death,[8]; patients with ESR1 mutation ref EMERALD (NCT03778931),45%
same,animals survived to the end of the study,intracranial tumor; day 54 ref 41,43%
same,B/P ratio,"intracranial tumor; intracranial tumor, according to reported data ref 41",about 0.6
